Patent US20250122192A1, “5-PYRIMIDINECARBOXAMIDE DERIVATIVES AND METHODS OF USING THE SAME” (Rgenta Therapeutics, Inc., priority 2021, published 2025)
Structures can show the parent of a compound that is named as a salt.

System: PMS1
Assay: Mini-gene reporter assay-PMS1
Assay type: cell-based
Conditions: Homo sapiens, HEK293, PMS1 mini-gene firefly luciferase reporter transiently transfected into HEK293 cells; read-out: PMS1 IC50
Outline: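 HEK293 cells transiently transfected with a mini-gene construct: skipped exon with flanking introns and exons fused to firefly luciferase in pcDNA3.1, so exon inclusion raises luciferase signal. Compounds tested in duplicate dilutions, luminescence read after incubation, EC50 fitted by Levenberg-Marquardt.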

Row | SMILES | IC50
1 | CCOc1nc(N2CCN(C)CC2)ncc1C(=O)Nc1cc(F)c2nn(C)cc2c1 [Compound 259, 4-ethoxy-N-(7-fluoro-2-methyl-2H-indazol-5-yl)-2-(4-methylpiperazin-1-yl)pyrimidine-5-carboxamide formate] | 1000 to 3000 nM
2 | CCOc1nc(N2CC[C@H](NC)C2)ncc1C(=O)Nc1cc(F)c2nc(C)cn2c1 [Compound 261, (S)-4-ethoxy-N-(8-fluoro-2-methylimidazo[1,2-a]pyridin-6-yl)-2-(3-(methylamino)pyrrolidin-1-yl)pyrimidine-5-carboxamide formate] | < 500 nM
3 | CCOc1nc(N2CC[C@@H](NC)C2)ncc1C(=O)Nc1cc(F)c2nc(C)cn2c1 [Compound 262, (R)-4-ethoxy-N-(8-fluoro-2-methylimidazo[1,2-a]pyridin-6-yl)-2-(3-(methylamino)pyrrolidin-1-yl)pyrimidine-5-carboxamide formate] | < 500 nM
4 | CCOc1nc(N2CCC(NC)C2)ncc1C(=O)Nc1cc(F)c2nn(C)cc2c1 (stereo not drawn) [Compound 263, 4-ethoxy-N-(7-fluoro-2-methyl-2H-indazol-5-yl)-2-(3-(methylamino)pyrrolidin-1-yl)pyrimidine-5-carboxamide formate] | < 500 nM
5 | CCOc1nc(N2CCN[C@H](C)C2)ncc1C(=O)Nc1cc(F)c2nn(C)cc2c1 [Compound 264, (R)-4-ethoxy-N-(7-fluoro-2-methyl-2H-indazol-5-yl)-2-(3-methylpiperazin-1-yl)pyrimidine-5-carboxamide formic acid] | 1000 to 3000 nM
6 | CCOc1nc(N2CCNC(C)(C)C2)ncc1C(=O)Nc1cc(F)c2nn(C)cc2c1 [Compound 265, 2-(3,3-dimethylpiperazin-1-yl)-4-ethoxy-N-(7-fluoro-2-methyl-2H-indazol-5-yl)pyrimidine-5-carboxamide] | > 3000 nM
7 | COc1nc(NC2CCNCC2)ncc1C(=O)Nc1cn2cc(C)nc2c(C)n1 [Compound 266, N-(2,8-dimethylimidazo[1,2-a]pyrazin-6-yl)-4-methoxy-2-(piperidin-4-ylamino) pyrimidine-5-carboxamide formic acid] | 1000 to 3000 nM
8 | CCOc1nc(N(CC)C2CCNCC2)ncc1C(=O)Nc1cn2cc(C)nc2cn1 [Compound 267, 4-ethoxy-2-(ethyl(piperidin-4-yl)amino)-N-(2-methylimidazo[1,2-a]pyrazin-6-yl)pyrimidine-5-carboxamide formic acid] | 500 to 1000 nM
9 | CCOc1nc(NC2CCNCC2)ncc1C(=O)Nc1cn2cc(C)nc2cn1 [Compound 268, 4-ethoxy-N-(2-methylimidazo[1,2-a]pyrazin-6-yl)-2-(piperidin-4-ylamino) pyrimidine-5-carboxamide formate] | 1000 to 3000 nM
10 | CCOc1nc(N2CCC(N(C)C)C2)ncc1C(=O)Nc1cc(F)c2nc(C)cn2c1 (stereo not drawn) [Compound 269, 2-(3-(dimethylamino)pyrrolidin-1-yl)-4-ethoxy-N-(8-fluoro-2-methylimidazo[1,2-a]pyridin-6-yl)pyrimidine-5-carboxamide] | 1000 to 3000 nM
11 | CCOc1nc(N2CCC(NC)C2)ncc1C(=O)Nc1ccc2nn(C)cc2c1 (stereo not drawn) [Compound 270, 4-ethoxy-N-(2-methyl-2H-indazol-5-yl)-2-(3-(methylamino)pyrrolidin-1-yl)pyrimidine-5-carboxamide hydrochloride] | < 500 nM
12 | COc1nc(NC2CCNCC2)ncc1C(=O)Nc1cn2cc(C)nc2cn1 [Compound 271, 4-methoxy-N-(2-methylimidazo[1,2-a]pyrazin-6-yl)-2-(piperidin-4-ylamino) pyrimidine-5-carboxamide 2,2,2-trifluoroacetate] | > 3000 nM
13 | CCOc1nc(N(CC)C2CCNCC2)ncc1C(=O)Nc1ccc2nn(C)cc2c1 [Compound 272, 4-ethoxy-2-(ethyl(piperidin-4-yl)amino)-N-(2-methyl-2H-indazol-5-yl)pyrimidine-5-carboxamide formate] | 1000 to 3000 nM
14 | CCOc1nc(N2CCNCC2)ncc1C(=O)Nc1cc(OC)c2nn(C)cc2c1 [Compound 273, 4-ethoxy-N-(7-methoxy-2-methyl-2H-indazol-5-yl)-2-(piperazin-1-yl)pyrimidine-5-carboxamide formate] | 1000 to 3000 nM
15 | CCOc1nc(N(C)C2CCNCC2)ncc1C(=O)Nc1cc(F)c2nn(C)cc2c1 [Compound 275, 4-ethoxy-N-(7-fluoro-2-methyl-2H-indazol-5-yl)-2-(methyl(piperidin-4-yl)amino) pyrimidine-5-carboxamide formate] | < 500 nM
16 | CCN(c1ncc(C(=O)Nc2cc(F)c3nn(C)cc3c2)c(OC)n1)C1CCNCC1 [Compound 284, 2-(ethyl(piperidin-4-yl)amino)-N-(7-fluoro-2-methyl-2H-indazol-5-yl)-4-methoxypyrimidine-5-carboxamide formate] | < 500 nM

Second part, the compound after the results:

Row | IC50 | SMILES
17 | > 3000 nM | CCOc1nc(N2CCC(NC)C2)ncc1C(=O)Nc1ccc2nc(C)cn2c1 (stereo not drawn) [Compound 274, 4-ethoxy-2-(3-(methylamino)pyrrolidin-1-yl)-N-(2-methylimidazo[1,2-a]pyridin-6-yl)pyrimidine-5-carboxamide]
18 | > 3000 nM | CCOc1nc(N2CCC(NC)C2)ncc1C(=O)Nc1cnc2nn(C)cc2c1 (stereo not drawn) [Compound 276, 4-ethoxy-N-(2-methyl-2H-pyrazolo[3,4-b]pyridin-5-yl)-2-(3-(methylamino)pyrrolidin-1-yl)pyrimidine-5-carboxamide formate]
19 | < 500 nM | CCOc1nc(N2CC[C@H](NC)C2)ncc1C(=O)Nc1cc(F)c2nn(C)cc2c1 [Compound 277, (S)-4-ethoxy-N-(7-fluoro-2-methyl-2H-indazol-5-yl)-2-(3-(methylamino)pyrrolidin-1-yl)pyrimidine-5-carboxamide 4-methylbenzenesulfinate]
20 | < 500 nM | CCOc1nc(N2CCC(NC)C2)ncc1C(=O)Nc1cc(OC)c2nn(C)cc2c1 (stereo not drawn) [Compound 278, 4-ethoxy-N-(7-methoxy-2-methyl-2H-indazol-5-yl)-2-(3-(methylamino)pyrrolidin-1-yl)pyrimidine-5-carboxamide formate]
21 | < 500 nM | CCOc1nc(N2CCN[C@@H](C)C2)ncc1C(=O)Nc1cc(F)c2nn(C)cc2c1 [Compound 279, (S)-4-ethoxy-N-(7-fluoro-2-methyl-2H-indazol-5-yl)-2-(3-methylpiperazin-1-yl)pyrimidine-5-carboxamide formate]
22 | 1000 to 3000 nM | CCOc1nc(N2C[C@@H](C)N[C@@H](C)C2)ncc1C(=O)Nc1cc(F)c2nn(C)cc2c1 [Compound 280, 2-((3R,5S)-3,5-dimethylpiperazin-1-yl)-4-ethoxy-N-(7-fluoro-2-methyl-2H-indazol-5-yl)pyrimidine-5-carboxamide 4-methylbenzenesulfonate]
23 | < 500 nM | CCOc1nc(N2CC[C@@H](NC)C2)ncc1C(=O)Nc1cc(F)c2nn(C)cc2c1 [Compound 282, (R)-4-ethoxy-N-(7-fluoro-2-methyl-2H-indazol-5-yl)-2-(3-(methylamino)pyrrolidin-1-yl)pyrimidine-5-carboxamide formate]
24 | < 500 nM | CCOc1nc(N2CCC(NC)C2)ncc1C(=O)Nc1cc(OC)c2nc(C)cn2c1 (stereo not drawn) [Compound 283, 4-ethoxy-N-(8-methoxy-2-methylimidazo[1,2-a]pyridin-6-yl)-2-(3-(methylamino)pyrrolidin-1-yl)pyrimidine-5-carboxamide formate]
25 | 1000 to 3000 nM | CCOc1nc(N2CC[C@H](NC)C2)ncc1C(=O)Nc1ccc2nn(C)cc2c1 [Compound 285, (S)-4-ethoxy-N-(2-methyl-2H-indazol-5-yl)-2-(3-(methylamino)pyrrolidin-1-yl)pyrimidine-5-carboxamide 2,2,2-trifluoroacetate]
26 | 500 to 1000 nM | CCOc1nc(N2CC[C@@H](NC)C2)ncc1C(=O)Nc1ccc2nn(C)cc2c1 [Compound 286, (R)-4-ethoxy-N-(2-methyl-2H-indazol-5-yl)-2-(3-(methylamino)pyrrolidin-1-yl)pyrimidine-5-carboxamide formate]
27 | 1000 to 3000 nM | CCOc1nc(N2CCC(NC)C2)ncc1C(=O)Nc1cnc2nc(C)cn2c1 (stereo not drawn) [Compound 287, 4-ethoxy-2-(3-(methylamino)pyrrolidin-1-yl)-N-(2-methylimidazo[1,2-a]pyrimidin-6-yl)pyrimidine-5-carboxamide fomate]
28 | 1000 to 3000 nM | CCOc1nc(N2CC[C@@H](NC)C2)ncc1C(=O)Nc1ccc2nc(C)cn2c1 [Compound 289, (R)-4-ethoxy-2-(3-(methylamino)pyrrolidin-1-yl)-N-(2-methylimidazo[1,2-a]pyridin-6-yl)pyrimidine-5-carboxamide formate]
29 | 1000 to 3000 nM | CCOc1nc(N2CC[C@@H](N(C)C)C2)ncc1C(=O)Nc1cc(F)c2nc(C)cn2c1 [Compound 290, (R)-2-(3-(dimethylamino)pyrrolidin-1-yl)-4-ethoxy-N-(8-fluoro-2-methylimidazo[1,2-a]pyridin-6-yl)pyrimidine-5-carboxamide 4-methylbenzenesulfonate]
30 | > 3000 nM | CCOc1nc(N2CC[C@H](N(C)C)C2)ncc1C(=O)Nc1cc(F)c2nn(C)cc2c1 [Compound 291, (S)-2-(3-(dimethylamino)pyrrolidin-1-yl)-4-ethoxy-N-(7-fluoro-2-methyl-2H-indazol-5-yl)pyrimidine-5-carboxamide formate]

Same assay, conditions: Homo sapiens, HEK293, read-out: PMS1 IC50 (nM)

Row | SMILES | IC50
31 | CCOc1nc(N(CC)C2CCNCC2)ncc1C(=O)Nc1cc(OC)c2nc(C)cn2c1 [Compound 260, 4-ethoxy-2-(ethyl(piperidin-4-yl)amino)-N-(8-methoxy-2-methylimidazo[1,2-a]pyridin-6-yl)pyrimidine-5-carboxamide formate] | < 500 nM
32 | CCOc1nc(N(CC)C2CCNCC2)ncc1C(=O)Nc1ccn2nc(C)cc2c1 [Compound 288, 4-ethoxy-2-(ethyl(piperidin-4-yl)amino)-N-(2-methylpyrazolo[1,5-a]pyridin-5-yl)pyrimidine-5-carboxamide formate] | 500 to 1000 nM

Same assay, conditions: Homo sapiens; at 5 μM; PMS1 mini-gene firefly luciferase reporter in HEK293 cells; read-out: PMS1% Effect at 5 μM

Row | SMILES | activation at 5 µM
33 | COc1nc(N(C)C2CCNCC2)ncc1C(=O)Nc1cc(F)c2nn(C)cc2c1 [Compound 281, N-(7-fluoro-2-methyl-2H-indazol-5-yl)-4-methoxy-2-(methyl(piperidin-4-yl)amino) pyrimidine-5-carboxamide formate] | > 75%
